Measurements from article PMC9618103, “Exploratory toxicology studies of 2,3-substituted imidazo[1,2-a]pyridines with antiparasitic and anti-inflammatory properties” (Toxicology Research, 2022).

Key:
Wistar rats [1] = assay: Subacute toxicity: serum and urine glucose, urinary protein excretion; format: in vivo; conditions: rats, p.o., 14 days at 10% of LD50 (CCl4, APAP: once daily, 3 days); mean ± SEM, n = 6
Description: (§1) For toxicity tests, acclimatized rats were randomly allocated to 12 groups (n = 12 for the control and n = 6 for the rest groups). […] Meanwhile, the aforementioned vehicles (dose volume 2 mL/kg b.w.) were administered to 3 groups. […] The animals were then housed in individual metabolic cages to collect urine for a period of 6 h and then the volume was recorded. Afterward, blood samples were obtained and the serum was separated by centrifugation at 1,620 × g for 10 min at room temperature.
Serum and urine glucose concentration were calculated using GOD-PAP kits (RANDOX, Laboratories Ltd, UK). Urinary protein was quantified using the Bradford method.[29]
(§2) Serum and urinary creatinine were determined by the Jaffe method. With this value, evaluation was made of the fractional excretion of sodium (FES), fractional excretion of potassium (FEP), and fractional excretion of glucose.[30]^,[31] The GFR was calculated from clearance of endogenous creatinine using the conventional equation:where GFR (CCr) is the creatinine clearance rate (mL/min); UCr and SCr are the creatinine concentrations (mg/dL) in urine and serum, respectively; and φ is the urinary flow rate (UFR) (mL/min). To avoid the error from the tubular secretion of creatinine found in males, only female animals were used.
(§3) The levels of sodium and potassium were measured in urine and serum using a flame photometer (Corning 400, Medfield, United States). Calculation was made of the clearance, fractional excretion, and filtered load of sodium (FLS), filtered load of potassium (FLP), and filtered load of glucose (FLG) using the conventional equations:where CX is the clearance rate of X (mL/min), CCr is the creatinine clearance rate (mL/min), UX and SX are the […] concentrations of X, respectively, φ is the UFR (mL/min), FEX is the fractional excretion (%) of X, and FLX is the filtered load of X in μEq/min (Na^+ or K^+) or mg/min (glucose).

Wistar rats [2] = assay: Subacute toxicity: water and electrolyte balance (osmolality, sodium, potassium, urinary flow); format: in vivo
Description: as §1
Osmolality of serum and urine were assessed (in triplicate) by using a vapor pressure osmometer (Wescor 5500, Logan, United States). U/S ratio as well as osmolar (COsm) and free water clearances were calculated via conventional equations:where UOsm and SOsm are the osmolality values (mOsm/Kg) in urine and serum, respectively, and φ is the UFR (mL/min).
as §3

Wistar rats [3] = assay: Subacute toxicity: serum alanine aminotransferase and alkaline phosphatase activity; format: in vivo; conditions: for Alanine Aminotransferase / Alkaline Phosphatase: serum, rats, p.o., 14 days at 10% of LD50 (CCl4, APAP: once daily, 3 days), mean ± SEM, n = 6
Description: (§4) For toxicity tests, acclimatized rats were randomly allocated to 12 groups (n = 12 for the control and n = 6 for the rest groups). […] Meanwhile, the aforementioned vehicles (dose volume 2 mL/kg b.w.) were administered to 3 groups. […] Upon completion of the 14-day treatments and before sample collection, the bladders of animals were emptied by gentle pressure on the lower part of the abdomen to induce urination. The animals were then housed in individual metabolic cages to collect urine for a period of 6 h and then the volume was recorded. Afterward, blood samples were obtained and the serum was separated by centrifugation at 1,620 × g for 10 min at room temperature.
The activities of serum alanine aminotransferase (ALT) and alkaline phosphatase (ALP) were measured with standard kits (RANDOX, Laboratories Ltd, UK).

Wistar rats [4] = assay: Hepatic and renal lipid peroxidation (lipid-soluble fluorescence); format: in vivo; conditions: for hepatic LPO, change in words / renal LPO, change in words: compared to the control group (CCl4 also versus PO); for Renal Lipoperoxidation: kidney; for Renal Lipoperoxidation / Hepatic Lipoperoxidation: rats, p.o., 14 days at 10% of LD50 (CCl4, APAP: once daily, 3 days), mean ± SEM, n = 6; for Hepatic Lipoperoxidation: liver
Description: as §4
Lipid peroxidation (LPO) was evaluated by the formation of lipid-soluble fluorescence, as previously described. Briefly, kidney and liver tissues were homogenized in 3 and 5 mL of phosphate buffer (0.2 M, pH = 7.4), respectively. A volume of 1 mL (kidney) or 0.8 mL (liver) of the homogenates was added to 7 mL of chloroform-methanol (2:1, v/v), and after 15 s of vortex mixing, the resulting mixture was cooled using an ice bath for 30 min to allow for phase separation. The fluorescence of the organic phase was measured using a Shimadzu fluorometer (Japan; λex = 370 nm; λem = 430 nm), whose sensitivity was adjusted to 140 fluorescence units by using 1 μg/mL of quinine sulfate in 50 mM H2SO4. The results were expressed as relative fluorescence units per milligram of protein.[33]
(§5) The protein concentration in homogenates was measured by the Bradford method.[29]

Wistar rats [5] = assay: Hepatic and renal reactive oxygen species (DCF formation); format: in vivo; conditions: for hepatic ROS, change in words / renal ROS, change in words: compared to the control group (CCl4 also versus PO); for Renal ROS: kidney; for Renal ROS / Hepatic ROS: rats, p.o., 14 days at 10% of LD50 (CCl4, APAP: once daily, 3 days), mean ± SEM, n = 6; for Hepatic ROS: liver
Description: as §4
Reactive oxygen species (ROS) were measured by formation of 2′,7′-dichlorofluorescein (DCF). An aliquot of 10 μL (kidney) or 5 μL (liver) of the homogenates was added to 1,940 or 1,945 μL of TRIS:HEPES (18:1) and was incubated in the presence of 50 μL of 2′,7′-dichlorofluorescein diacetate for 1 h at 37 °C. In order to quench the reaction, the mixture was chilled using an ice bath. The fluorescence was measured using a Shimadzu fluorometer (Japan; λex = 488 nm; λem = 525 nm). The results were expressed as nM DCF formed per mg protein/h.[33]
as §5

Wistar rats [6] = assay: Subacute toxicity: glomerular filtration rate (creatinine clearance) and serum creatinine; format: in vivo; conditions: rats, p.o., 14 days at 10% of LD50 (CCl4, APAP: once daily, 3 days); mean ± SEM, n = 6
Description: as §1, §2

[7] = tested on: renal secretory pathway of organic anions; assay: Active tubular secretion of organic acids (PAH uptake in kidney cortex slices); format: in vivo, rats; conditions: kidney cortex slices, PAH 1 mM, 1 h, 25 °C; rats, p.o., 14 days at 10% of LD50 (CCl4, APAP: once daily, 3 days); mean ± SEM, n = 6
Description: as §4
p-Aminohippuric acid (PAH) was used as an indicator of the renal secretory pathway of organic anions. Kidneys were extracted and immediately submerged in Ringer solution (pH = 7.4 and mOsm = 290 ± 10 mOsm/kg) under constant bubbling with O2/CO2 (95/5%). The kidneys were decapsulated and slices of the kidney cortex were obtained, which were then incubated in Ringer solution containing PAH (1 mM) for 1 h at 25 °C under constant bubbling with O2/CO2 (95/5%). The levels of PAH were quantified with the Bratton-Marshall method and results were expressed as the PAH tissue/medium ratio (PAH t/m ratio).[31]^,[32]

[8] = rats, p.o., 14 days at 10% of LD50 (CCl4, APAP: once daily, 3 days), mean ± SEM, n = 6
[9] = compared to the control (CCl4 also versus PO)

Compound	Filtered Load of Glucose (Wistar rats [1])	Fractional Excretion of Glucose (Wistar rats [1])	Urinary Glucose Excretion (Wistar rats [1])	Urinary Protein Excretion (Wistar rats [1])	Filtered Load of Potassium (Wistar rats [2]; [8])	Filtered Load of Sodium (Wistar rats [2]; [8])	Fractional Excretion of Potassium (Wistar rats [2]; [8])	Fractional Excretion of Sodium (Wistar rats [2]; [8])	Serum Osmolality (Wistar rats [2]; [8])	Serum Potassium (Wistar rats [2]; [8])	Serum Sodium (Wistar rats [2]; [8])	Urinary Flow Rate (Wistar rats [2]; [8])	Urinary Potassium Excretion (Wistar rats [2]; [8])	Urinary Sodium Excretion (Wistar rats [2]; [8])	Alanine Aminotransferase (Wistar rats [3])	Alkaline Phosphatase (Wistar rats [3])	hepatic LPO, change in words (Wistar rats [4])	renal LPO, change in words (Wistar rats [4])	Renal Lipoperoxidation (Wistar rats [4])	Hepatic Lipoperoxidation (Wistar rats [4])	also measured
CC(=O)Nc1ccc(O)cc1 [APAP, acetaminophen, reference compound]	1.35 ± 0.27 mg/min	0.01 ± 1.9E-3%	87.10 ± 19.92 ng/min	0.94 ± 0.24 µg/min	3.99 ± 0.80 µEq/min	147.38 ± 31.27 µEq/min	12.50 ± 3.12%	0.27 ± 0.09%	295.68 ± 1.57 mOsm/kg	3.78 ± 0.22 mEq/L	138.58 ± 2.37 mEq/L	6.19 ± 1.15 µL/min	0.47 ± 0.14 µEq/min	0.46 ± 0.21 µEq/min	41.47 ± 4.80 U/L	151.97 ± 11.19 U/L	increased	increased	0.46 ± 0.06 URF/mg protein	1.06 ± 0.06 URF/mg protein	serum potassium, change in words (Wistar rats [2]; compared to the control group, significant by PLS VIP and ANOVA): decreased; hepatic ROS, change in words (Wistar rats [5]): increased; renal ROS, change in words (Wistar rats [5]): increased; Renal ROS (Wistar rats [5]): 421.62 ± 56.57 nM de DCF/mg protein/h; Hepatic ROS (Wistar rats [5]): 1740.28 ± 231.55 nM de DCF/mg protein/h
ClC(Cl)(Cl)Cl [CCl4, carbon tetrachloride, reference compound]	4.64 ± 1.71 mg/min	0.02 ± 0.01%	265.11 ± 89.54 ng/min	12.15 ± 4.49 µg/min	17.22 ± 5.29 µEq/min	592.11 ± 199.71 µEq/min	6.86 ± 2.06%	0.21 ± 0.06%	305.77 ± 3.41 mOsm/kg	4.27 ± 0.25 mEq/L	139.08 ± 1.63 mEq/L	6.59 ± 1.39 µL/min	0.73 ± 0.10 µEq/min	0.72 ± 0.13 µEq/min	127.80 ± 4.08 U/L	328.19 ± 61.36 U/L	increased	increased	0.61 ± 0.07 URF/mg protein	1.06 ± 0.11 URF/mg protein	Serum Glucose (Wistar rats [1]): 103.17 ± 4.35 mg/dL; Glomerular Filtration Rate (Wistar rats [6]): 4.30 ± 1.47 mL/min; Serum Creatinine (Wistar rats [6]): 0.45 ± 0.13 mg/dL; U/S Osm ratio (Wistar rats [2]; [8]): 3.27 ± 0.37; serum ALP, change in words (Wistar rats [3]; [9]): increased; serum ALT, change in words (Wistar rats [3]; [9]): increased; PAH t/m ratio [7]: 2.08 ± 0.11; hepatic ROS, change in words (Wistar rats [5]): increased; renal ROS, change in words (Wistar rats [5]): increased; Renal ROS (Wistar rats [5]): 333.27 ± 74.29 nM de DCF/mg protein/h; Hepatic ROS (Wistar rats [5]): 1434.82 ± 121.35 nM de DCF/mg protein/h
